Data on 62 compounds can be found in patent US8962641B2, “Pyrimidine-substituted pyrrolidine derivatives, pharmaceutical compositions and uses thereof” (Boehringer Ingelheim International GmbH, priority 2013, dated 2015).

In this test the target is human ACC2 (Homo sapiens (Human), UniProt O00763). The test is described as follows: ACC2 assay (spectrophotometric 384 well assay, NADH-linked kinetic method). The test is classed as biochemical. The settings on record: hACC2 construct lacking 128 N-terminal amino acids; coupled lactate dehydrogenase/pyruvate kinase reaction, 340 nm, 25° C. In outline: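 Baculovirus/insect-cell human ACC2, anion-exchange purified; ADP formation coupled to pyruvate kinase/lactate dehydrogenase, NADH loss followed at 340 nm, 25° C, 15 min. Final 200 μM NADH and acetyl-CoA, 500 uM ATP; vehicle and no-acetyl-CoA wells set 100% and 0%.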
human ACC2, sequence (O00763 129-2458): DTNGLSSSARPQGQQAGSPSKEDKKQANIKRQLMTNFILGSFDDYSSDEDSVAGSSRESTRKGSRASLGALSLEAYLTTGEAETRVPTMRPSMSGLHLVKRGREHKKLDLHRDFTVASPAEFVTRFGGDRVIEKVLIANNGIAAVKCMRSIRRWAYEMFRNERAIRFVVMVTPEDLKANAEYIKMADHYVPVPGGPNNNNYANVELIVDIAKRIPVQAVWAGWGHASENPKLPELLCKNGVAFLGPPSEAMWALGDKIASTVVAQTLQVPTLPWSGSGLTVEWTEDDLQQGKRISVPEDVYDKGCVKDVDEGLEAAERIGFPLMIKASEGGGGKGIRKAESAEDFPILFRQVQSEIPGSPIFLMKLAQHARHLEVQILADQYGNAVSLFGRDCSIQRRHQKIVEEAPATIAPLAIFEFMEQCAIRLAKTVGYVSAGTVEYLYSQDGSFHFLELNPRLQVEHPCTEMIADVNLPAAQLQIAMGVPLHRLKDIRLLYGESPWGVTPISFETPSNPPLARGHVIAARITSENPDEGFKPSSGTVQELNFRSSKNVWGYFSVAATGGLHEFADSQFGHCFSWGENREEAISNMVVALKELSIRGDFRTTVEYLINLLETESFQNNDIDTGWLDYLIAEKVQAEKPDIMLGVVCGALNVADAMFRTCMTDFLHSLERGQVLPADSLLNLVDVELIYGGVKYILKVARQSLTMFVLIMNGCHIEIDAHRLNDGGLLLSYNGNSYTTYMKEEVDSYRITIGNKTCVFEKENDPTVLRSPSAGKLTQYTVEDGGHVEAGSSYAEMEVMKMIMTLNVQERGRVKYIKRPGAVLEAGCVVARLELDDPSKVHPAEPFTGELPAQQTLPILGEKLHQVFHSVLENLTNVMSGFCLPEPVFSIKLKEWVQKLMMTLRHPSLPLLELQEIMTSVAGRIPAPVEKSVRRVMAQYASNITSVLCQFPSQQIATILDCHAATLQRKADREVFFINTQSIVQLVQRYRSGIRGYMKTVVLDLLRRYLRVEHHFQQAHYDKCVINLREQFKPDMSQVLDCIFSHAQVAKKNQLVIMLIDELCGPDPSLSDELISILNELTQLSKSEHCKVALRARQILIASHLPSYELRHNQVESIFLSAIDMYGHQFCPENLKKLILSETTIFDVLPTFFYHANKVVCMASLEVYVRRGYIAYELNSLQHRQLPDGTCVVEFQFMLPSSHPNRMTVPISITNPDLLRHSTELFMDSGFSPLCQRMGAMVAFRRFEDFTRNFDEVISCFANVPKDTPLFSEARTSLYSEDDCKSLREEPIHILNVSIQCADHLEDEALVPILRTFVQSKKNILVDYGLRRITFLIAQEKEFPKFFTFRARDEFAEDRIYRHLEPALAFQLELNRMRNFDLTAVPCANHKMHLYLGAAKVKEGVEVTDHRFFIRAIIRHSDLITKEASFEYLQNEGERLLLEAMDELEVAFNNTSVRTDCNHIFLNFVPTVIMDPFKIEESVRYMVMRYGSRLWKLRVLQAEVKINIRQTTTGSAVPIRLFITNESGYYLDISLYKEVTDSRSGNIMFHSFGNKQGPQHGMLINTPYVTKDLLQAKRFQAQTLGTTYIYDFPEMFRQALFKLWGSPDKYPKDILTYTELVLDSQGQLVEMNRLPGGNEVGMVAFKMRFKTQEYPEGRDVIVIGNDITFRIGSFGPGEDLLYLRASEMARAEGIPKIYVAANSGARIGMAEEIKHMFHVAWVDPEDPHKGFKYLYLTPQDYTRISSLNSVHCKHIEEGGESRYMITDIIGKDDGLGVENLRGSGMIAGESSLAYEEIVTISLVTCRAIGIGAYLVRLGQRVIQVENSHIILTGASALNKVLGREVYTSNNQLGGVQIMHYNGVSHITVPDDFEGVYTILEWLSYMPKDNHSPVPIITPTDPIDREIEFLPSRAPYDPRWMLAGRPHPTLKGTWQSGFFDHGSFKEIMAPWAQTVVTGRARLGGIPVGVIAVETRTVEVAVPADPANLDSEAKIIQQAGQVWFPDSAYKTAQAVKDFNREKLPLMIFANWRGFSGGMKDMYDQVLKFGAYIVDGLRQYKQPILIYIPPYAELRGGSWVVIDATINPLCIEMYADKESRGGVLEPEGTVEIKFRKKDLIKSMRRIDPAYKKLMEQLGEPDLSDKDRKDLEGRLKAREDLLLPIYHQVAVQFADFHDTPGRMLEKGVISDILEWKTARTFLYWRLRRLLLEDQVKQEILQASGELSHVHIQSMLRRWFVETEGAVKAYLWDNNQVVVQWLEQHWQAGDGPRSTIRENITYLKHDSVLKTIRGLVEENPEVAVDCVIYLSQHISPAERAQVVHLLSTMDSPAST

`CC(=O)N[C@@H](C)c1ccc(O[C@@H]2CCN(c3ncnc(N(C)CCC(F)(F)F)c3F)C2)cc1` [Example 8.159] returned an IC50 of 151 nM.

Regarding `CC(=O)N[C@@H](C)c1ccc(O[C@@H]2CCN(c3ncnc(N4CCC(CO)C4)c3F)C2)cc1` (some centres unmarked) [Example 8.201], 294 nM corresponded to half-maximal inhibition (IC50).

As to `COC[C@H]1CCCN1c1ncnc(N2CC[C@@H](Oc3ccc([C@H](C)NC(C)=O)cc3)C2)c1F` [Example 8.197], the IC50 was 733 nM.

Turning to `CC(=O)N[C@@H](C)c1ccc(O[C@@H]2CCN(c3ncnc(N4CCOC(C)(C)C4)c3F)C2)cc1` [Example 8.176], the IC50 was 683 nM.

The compound `CCNC(=O)N[C@@H](C)c1ccc(O[C@@H]2CCN(c3nc(N4CCOCC4)ncc3F)C2)cc1` [Example 3.20] came in with an IC50 of 576 nM.

`C[C@H](NC(=O)c1cn[nH]c1)c1ccc(OC2CCN(c3ccnc(N4CCOCC4)n3)C2)cc1` (some centres unmarked) [Example 2.7] returned a half-maximal inhibitory concentration (IC50) of 455 nM.

With `CC(=O)N[C@@H](C)c1ccc(O[C@@H]2CCN(c3nc(N(C)C4CCCOC4)ncc3Cl)C2)cc1` (some centres unmarked) [Example 8.255], inhibition was half-maximal at 303 nM (IC50).

In the case of `CC(=O)N[C@@H](C)c1ccc(O[C@@H]2CCN(c3ncnc(N4CCC5(CC5)C4)c3F)C2)cc1` [Example 8.235], the IC50 worked out at 45 nM. Against the preceding compound, the IC50 is about 6.7-fold lower.

`CC(=O)N[C@@H](C)c1ccc(O[C@@H]2CCN(c3ncnc(NC4CCCC4)c3F)C2)cc1` [Example 8.119]: the half-maximal inhibitory concentration (IC50) came out at 209 nM.

`CC(=O)N[C@@H]1CC[C@H](C(=O)N[C@@H](C)c2ccc(O[C@@H]3CCN(c4ncnc(OCC5CC5)c4F)C3)cc2)C1` [Example 10.1, (1S,3R)-3-acetamido-N—((S)-1-(4-((R)-1-(6-(cyclopropylmethoxy)-5-fluoropyrimidin-4-yl)pyrrolidin-3-yloxy)phenyl)ethyl)cyclopentanecarboxamide] displayed an IC50 of 235 nM.

Compound `CC(=O)N[C@@H](C)c1ccc(O[C@@H]2CCN(c3ncnc(OC4CCCC4)c3F)C2)cc1` [Example 7.47] had an IC50 of 58 nM.

As to `CC(=O)N[C@@H](C)c1ccc(O[C@@H]2CCN(c3ncnc(OC4CCCC4)c3Cl)C2)cc1` [Example 7.53], the IC50 was 32 nM.

`CCN(CC)c1nc(N2CC[C@@H](Oc3ccc([C@H](C)NC(C)=O)cc3)C2)ncc1F` [Example 6.13] came in with an IC50 of 510 nM.

Take `COC[C@H]1CCCN1c1nccc(N2CC[C@@H](Oc3ccc([C@H](C)NC(C)=O)cc3)C2)n1` [Example 8.228]: the IC50 came to 619 nM. The IC50 values of the last two compounds are within 1.5-fold of each other.

Regarding `CC(=O)N[C@@H](C)c1ccc(O[C@@H]2CCN(c3ccnc(N4CCOCC4)n3)C2)cc1` [Example 8.71], the IC50 is 199 nM.

`CC(=O)N[C@@H](C)c1ccc(O[C@@H]2CCN(c3ccnc(C(C)C)n3)C2)cc1` [Example 6.9] displayed a 50% inhibitory concentration (IC50) of 654 nM.

Turning to `CC(=O)N[C@@H](C)c1ccc(O[C@@H]2CCN(c3ccnc(N(CCC#N)C4CC4)n3)C2)cc1` [Example 8.107], the midpoint of inhibition, the IC50, lay at 522 nM.

With `CC(=O)N[C@@H](C)c1ccc(O[C@@H]2CCN(c3ccnc(N(C)C4CCCC4)n3)C2)cc1` [Example 8.20], the IC50 was 170 nM.

Compound `C[C@H](NC(=O)c1cncs1)c1ccc(O[C@@H]2CCN(c3ccnc(C(F)(F)F)n3)C2)cc1` [Example 6.16] yielded a half-inhibitory concentration (IC50) of 153 nM.

As to `CC(=O)N[C@@H](C)c1ccc(O[C@@H]2CCN(c3ncnc(OC4CCC4)c3F)C2)cc1` [Example 7.27], the IC50 came to 35 nM.

The compound `CCCOc1ncnc(N2CC[C@@H](Oc3ccc([C@H](C)NC(C)=O)cc3)C2)c1F` [Example 7.19] returned an IC50 of 65 nM.

Compound `CC(=O)N[C@@H](C)c1ccc(O[C@@H]2CCN(c3ccnc(N4CC(F)(F)C(F)(F)C4)n3)C2)cc1` [Example 8.74] returned an IC50 of 115 nM.

`CCCN(C)c1cc(N2CC[C@@H](Oc3ccc([C@H](C)NC(C)=O)cc3)C2)ncn1` [Example 8.7] showed an IC50 of 865 nM.

`CCN(C)c1ncc(Br)c(N2CC[C@@H](Oc3ccc([C@H](C)NC(C)=O)cc3)C2)n1` [Example 8.57] gave a 50% inhibitory concentration (IC50) of 1000 nM.

The compound `CC(=O)N[C@@H](C)c1ccc(O[C@@H]2CCN(c3ncnc(N4CCC(F)(F)C4)c3F)C2)cc1` [Example 8.140] came in with an IC50 of 109 nM.

On to `CC(=O)N[C@@H](C)c1ccc(O[C@@H]2CCN(c3ccnc(N(C)CCC#N)n3)C2)cc1` [Example 8.37], for which half-maximal inhibition (IC50) required 349 nM. This IC50 lies about 3.2-fold higher than the previous one.

`CC(=O)N[C@@H](C)c1ccc(O[C@@H]2CCN(c3nc(N(C)C[C@@H]4CCCO4)ncc3F)C2)cc1` [Example 8.165] returned an IC50 of 75 nM.

`CC(=O)N[C@@H](C)c1ccc(O[C@@H]2CCN(c3ncnc(C4CCC4)c3F)C2)cc1` [Example 9.3] registered a concentration for half-maximal inhibition (IC50) of 342 nM. This IC50 is about 4.6-fold higher than that of the compound before.

`CC(=O)N[C@@H](C)c1ccc(O[C@@H]2CCN(c3ccnc(N4CCC4)n3)C2)cc1` [Example 8.40] yielded an IC50 of 628 nM.

As for `COc1c(OCC2CC2(F)F)ncnc1N1CC[C@@H](Oc2ccc([C@H](C)NC(C)=O)cc2)C1` (some centres unmarked) [Example 7.56], 75 nM corresponded to half-maximal inhibition (IC50).

As to `CCC(=O)N[C@@H](C)c1ccc(OC2CCN(c3ccnc(N(C)CC)n3)C2)cc1` (some centres unmarked) [Example 2.13], the half-maximal inhibitory concentration (IC50) stood at 85 nM.

`CCNC(=O)N[C@@H](C)c1ccc(O[C@@H]2CCN(c3nc(N4CCC5(CC5)C4)ncc3F)C2)cc1` [Example 3.17] displayed a concentration for half-maximal inhibition (IC50) of 242 nM.

In the case of `CCCNc1ncnc(N2CC[C@@H](Oc3ccc([C@H](C)NC(C)=O)cc3)C2)c1F` [Example 8.120], the half-maximal inhibitory concentration (IC50) worked out at 413 nM.

In turn, `CC(=O)N[C@@H](C)c1ccc(O[C@@H]2CCN(c3ncnc(N4CCC(CO)C4)c3F)C2)cc1` (some centres unmarked) [Example 8.202] had an IC50 of 721 nM. This IC50 is about 1.7-fold higher than that of the compound before.

In turn, `CC(=O)N[C@@H](C)c1ccc(O[C@@H]2CCN(c3nc(N4CCC(F)(F)C4)ncc3F)C2)cc1` [Example 8.69] gave an IC50 of 102 nM.

The compound `CC(=O)N[C@@H](C)c1ccc(O[C@@H]2CCN(c3nc(OCC(C)C)ncc3F)C2)cc1` [Example 7.14] showed a concentration for half-maximal inhibition (IC50) of 780 nM.

As for `CC(=O)N[C@@H](C)c1ccc(O[C@@H]2CCN(c3ncnc(OCC4CC4)c3C)C2)cc1` [Example 7.25], half-maximal inhibition (IC50) was put at 67 nM.

`CC(=O)N[C@@H](C)c1ccc(O[C@@H]2CCN(c3nc(N(C)C4CCC4)ncc3F)C2)cc1` [Example 8.190]: the 50% inhibitory concentration (IC50) came out at 41 nM.

`CC(=O)N[C@@H](C)c1ccc(O[C@@H]2CCN(c3ccnc(N(C)CCC(F)(F)F)n3)C2)cc1` [Example 8.206] came in with a 50% inhibitory concentration (IC50) of 75 nM.

In turn, `CC(=O)N[C@@H](C)c1ccc(O[C@@H]2CCN(c3nc(N4CCCC4(C)C)ncc3F)C2)cc1` [Example 8.271] registered a 50% inhibitory concentration (IC50) of 170 nM.

`COC(C)(C)COc1ncnc(N2CC[C@@H](Oc3ccc([C@H](C)NC(C)=O)cc3)C2)c1Cl` [Example 7.60]: the concentration for half-maximal inhibition (IC50) worked out at 145 nM.

With `CC(=O)N[C@@H](C)c1ccc(O[C@@H]2CCN(c3ncc(C4CCC4)cn3)C2)cc1` [Example 6.17], the IC50 amounted to 2360 nM. Compared with the last compound, the IC50 is about 16-fold higher.

In turn, `COC(=O)N[C@@H](C)c1ccc(OC2CCN(c3ncnc(OCC(C)(C)O)c3F)C2)cc1` (some centres unmarked) [Example 4.6] gave a half-inhibitory concentration (IC50) of 222 nM.

Regarding `CC(=O)N[C@@H](C)c1ccc(O[C@@H]2CCN(c3ncnc(C4CC4)c3F)C2)cc1` [Example 9.5], the IC50 turned out to be 1010 nM.

`COc1cccc(-c2nccc(N3CC[C@@H](Oc4ccc([C@H](C)NC(C)=O)cc4)C3)n2)c1` [Example 9.1, N—((S)-1-(4-((R)-1-(2-(3-methoxyphenyl)pyrimidin-4-yl)pyrrolidin-3-yloxy)phenyl)ethyl)acetamide]: the IC50 is 725 nM. This IC50 and that of the compound before are within 1.5-fold of each other.

Turning to `CC(=O)Nc1nc(C)c(C(=O)N[C@@H](C)c2ccc(OC3CCN(c4ccnc(N(C)CC(F)F)n4)C3)cc2)s1` (some centres unmarked) [Example 2.10], the concentration for half-maximal inhibition (IC50) was determined as 115 nM.

`CC(=O)N[C@@H](C)c1ccc(O[C@@H]2CCN(c3nc(N4CCC(CO)C4)ncc3F)C2)cc1` (some centres unmarked) [Example 8.183] showed a half-inhibitory concentration (IC50) of 807 nM.

Turning to `CCN(C)c1ncc(C)c(N2CC[C@@H](Oc3ccc([C@H](C)NC(C)=O)cc3)C2)n1` [Example 8.53], the half-maximal inhibitory concentration (IC50) worked out at 452 nM.

For `CC(=O)N[C@@H](C)c1ccc(O[C@@H]2CCN(c3ncnc(N4CC5COCC5C4)c3F)C2)cc1` (some centres unmarked) [Example 8.172], the IC50 stood at 675 nM.

The compound `CC(=O)N[C@@H](C)c1ccc(O[C@@H]2CCN(c3nc(N(C)C4CCCOC4)ncc3F)C2)cc1` (some centres unmarked) [Example 8.166] yielded an IC50 of 105 nM.

As for `CC(=O)N[C@@H](C)c1ccc(O[C@@H]2CCN(c3nc(N(C)CCO)ncc3Cl)C2)cc1` [Example 8.248], the IC50 came to 1040 nM.

For the compound `COC[C@H](C)N(C)c1ncnc(N2CC[C@@H](Oc3ccc([C@H](C)NC(C)=O)cc3)C2)c1F` [Example 8.177], the IC50 is 476 nM.

As to `CCCN(CCC#N)c1nccc(N2CC[C@@H](Oc3ccc([C@H](C)NC(C)=O)cc3)C2)n1` [Example 8.109], the IC50 turned out to be 245 nM. This IC50 is about 1.9-fold lower than that of the compound before.

With `CC(=O)N[C@@H](C)c1ccc(O[C@@H]2CCN(c3ccnc(OCC4CC4)n3)C2)cc1` [Example 7.6], it took 1100 nM to reach half-maximal inhibition (IC50).

As to `C[C@H](NC(=O)C1CC1)c1ccc(OC2CCN(c3ccnc(N4CCOCC4)n3)C2)cc1` (some centres unmarked) [Example 2.2], 359 nM corresponded to half-maximal inhibition (IC50). Compared with the last compound, the IC50 is about 3.1-fold lower.

Take `CC(=O)N[C@@H](C)c1ccc(O[C@@H]2CCN(c3nc(N(C)CC(C)(C)O)ncc3Cl)C2)cc1` [Example 8.266]: it took 995 nM to reach half-maximal inhibition (IC50).

`CCC(=O)Nc1nc(C)c(C(=O)N[C@@H](C)c2ccc(O[C@@H]3CCN(c4ncnc(NCC(F)F)c4Cl)C3)cc2)s1` [Example 8.315] displayed an IC50 of 552 nM. This IC50 is about 1.8-fold lower than that of the compound before.

Compound `CC(=O)N[C@@H](C)c1ccc(O[C@@H]2CCN(c3nc(N(C)CCC(F)(F)F)ncc3Cl)C2)cc1` [Example 8.247] returned a 50% inhibitory concentration (IC50) of 110 nM. Against the preceding compound, the IC50 is about 5-fold lower.

Compound `CC(=O)N[C@@H](C)c1ccc(O[C@@H]2CCN(c3nc(N4CCOC(C)(C)C4)ncc3Cl)C2)cc1` [Example 8.209] returned an IC50 of 351 nM.

As for `CCN(CC)c1ncnc(N2CC[C@@H](Oc3ccc([C@H](C)NC(C)=O)cc3)C2)c1F` [Example 8.95], the IC50 is 79 nM. This IC50 lies about 4.4-fold lower than the previous one.

In the case of `CC(=O)N[C@@H](C)c1ccc(O[C@@H]2CCN(c3ccnc(N(C)CCc4ccccc4)n3)C2)cc1` [Example 8.22], inhibition was half-maximal at 986 nM (IC50). This IC50 lies about 12-fold higher than the previous one.

With `C[C@H](NC(=O)N(C)C)c1ccc(O[C@H]2CCN(c3nc(N4CCC5(CC5)C4)ncc3F)C2)cc1` [Example 3.16], the IC50 turned out to be 104 nM. Compared with the last compound, the IC50 is about 9.5-fold lower.

By IC50 is commonly meant the concentration that inhibits the measured activity by half.
